Consider two molecules from patent publication US9145381B2, “Derivative of [(3-hydroxy-4-pyron-2-yl)-methyl]-amine and use thereof as anti-neoplastic drugs” (Universita' Degli Studi Di Urbino, priority 2008, dated 2015).

Assay type in all cases: cell-based
One assay relates to JURKAT cells. As to the kind of experiment: Cell cycle, propidium iodide cytofluorimetric analysis. The following applies: 72 hour treatment. As to the method: (§1) FIG. 5: Apoptosis induced by L1 after treatment for 72 hours at a concentration of 50 μM. FIGS. 6-13: Effects of L1 on the percentages of the different phases of the cell cycle after a 72 hour treatment at different concentrations. FIG. 14: Apoptosis induced by L9 after a 72 hour treatment at a concentration of 5 μM. FIGS. 15-22: Effects of L9 on the percentages of the different phases of the cell cycle after a 72 hour treatment at different concentrations.
(§2) The effects of L1 and L9 on the progression of the cell cycle and on its hypothetical ability to induce the apoptotic process were evaluated by cytofluorimetric analysis by means of propidium iodide staining of all of the previously tested cell lines. Cell treated with different concentrations of the two compounds, as previously disclosed, have been harvested and washed with cold phosphate buffer (1×PBS). The cells were resuspended in cold 70% ethanol and fixed at +4° C. for 24 hours. All of the samples were then centrifuged at 1300 rpm at +4° C. for 3 minutes and then resuspended in a solution containing propidium iodide (1×PBS; 0.1% Triton X-100, 0.1% sodium citrate, 250 μg/ml RNasi A, 50 μg/ml propidium iodide) and, after 24 hours of incubation at +4° C., a minimum of 1×10^4 events were acquired at the BD FACScan cytofluorimeter (BD Biosciences, San Jose, Calif., USA). The acquisitions were analysed by a FlowJo 5.7.2 software (Tree Star, Inc., Ashland, Oreg., USA) in order to determine the percentage of cells in different phases of the cell cycle and displaying hypoploid conditions (Apoptotic cells). The induction of programmed cell death was computed as the difference between the percentage of hypodiploid cells in treated and non-treated samples.

For another assay, the system named is HL-60 cells. The assay is described as above. The conditions noted are these: HL-60 (printed H1-60 / JL-60), 72 hour treatment. As to the method:
as §1, §2

In the next assay the test system is RH-4 cells. Described as above. The following applies: RH-4, 72 hour treatment. How it is done: as §1, §2
Another assay has as its system HeLa cells. Described as above. The following applies: 72 hour treatment. How it is done:
as §1, §2

The test system of the next assay is tumour cell lines. As to the kind of experiment: Cell cycle and apoptosis, propidium iodide cytofluorimetric analysis. The conditions noted are these: 72 hour treatment; for interruption of the cell cycle: tested tumour cell lines in general, different concentrations. As to the method:
as §1, §2

For assay [1], the system named is HeLa cells (uterine cervix cancer). As to the kind of experiment: Antiproliferative activity, Trypan blue viability. The conditions noted are these: 72 hours, treatments repeated every 24 hours, maximum over the lines. How it is done: (§3) FIGS. 3 and 4 show a diagram with the inhibiting concentrations (IC50) of L1 (FIG. 3) and L9 (FIG. 4) in different tumour cell lines. Cells in an exponential growth phase were treated for 72 hours with L1 and L9 and then harvested and stained with Trypan blue in order to determine viability. The values of IC50 have been computed for each compound as the concentration that can determine a 50% reduction in viable cells with respect to a non-treated control.
(§4) In order to evaluate the ability of these compounds to inhibit the proliferation of tumour cells in vitro, eight cell lines were selected, four deriving from haematopoietic tumours and four deriving from solid tumours. The tested hematopoietic lines comprise three myeloid tumour cell lines (U937—acute monocytic leukaemia, NB4—acute promyelocytic leukaemia, HL-60—acute myeloid leukaemia) and a lymphoid tumour cell line (JURKAT—T cell leukaemia), while cell lines deriving from multiform glioblastoma (U-373MG), from uterine cervix cancer (HeLa), from malignant pleural mesothelioma (H-28) and from rhabdomyosarcoma (RH-4) have been used as lines representative of solid tumours. Each cell line has been grown in the appropriate growth medium at 37° C. (RPMI 1640 for the hematopoietic lines and DMEM for the adhering cells deriving from solid tumours—Cambrex, Walkersville, Md., USA) added with 10% FBS, 1% glutamine, 100 IU/ml penicillin, 100 μg/ml streptomycin in a highly humidified atmosphere at 5% CO2. The hematopoietic populations were diluted with preheated growth medium at 37° C. at a concentration of 1×10^5 cells/ml and aliquots of 2 ml were aliquoted in each single well of 6-well plates. The adhering cells were trypsinized, diluted with preheated growth medium at 37° C. and 0.5×10^5 cells were aliquoted in each single well of 6-well plates. The cells in an exponential growth phase were treated with different concentrations of L1 or L9. Both compounds were diluted in distilled water and the treatments were repeated every 24 hours. 72 hours after starting the treatments, cell viability was evaluated by means of Trypan blue staining and the inhibiting concentration (IC50) was computed for each cell line as the concentration allowing to reduce by 50% the number of viable cells, with respect to a non-treated control.

For assay [2], the system named is cell lines deriving from solid tumours (U-373MG, HeLa, H-28, RH-4). As to the kind of experiment: Antiproliferative activity, Trypan blue viability. The following applies: cells deriving from solid tumours, 72 hours. As to the method:
as §3, §4

In assay [3] the test system is RH-4 cells (rhabdomyosarcoma). Description: Antiproliferative activity, Trypan blue viability. The conditions noted are these: 72 hours, treatments repeated every 24 hours, minimum over the lines. How it is done:
as §3, §4

Assay [4] has as its system hematopoietic cells (U937, NB4, HL-60, JURKAT). Description: Antiproliferative activity, Trypan blue viability. The conditions noted are these: 72 hours. As to the method: as §3, §4
A further assay has as its system U937 cells. Description: Fragmentation of genomic DNA, agarose gel electrophoresis. The following applies: U937, 72 hours; L1 25, 50, 100 μM; L9 2.5, 5, 10 μM. As to the method: The cells were treated for 72 hours with L1 and L9 at the concentrations shown in the Figure, the genomic DNA was then extracted, separated on a 2% agarose gel and stained with ethidium bromide.
The induction of apoptosis by compounds L1 and L9 has further been confirmed with the analysis of the fragmentation of the genomic DNA carried out by electrophoresis on an agarose gel. U937 cells treated with L1 (non-treated as a control) at concentrations of 25, 50, 100 μM and L9 at concentrations of 2.5, 5, 10 μM for 72 hours were harvested (about 2×10^6 cells), washed with cold 1×PBS and incubated in 2 ml of 1×TBS, 0.5% Tween20, 1 mM EDTA for 30 minutes at +4° C. After being centrifuged at 1200 rpm, for 5 minutes at +4° C., the cells were incubated in 0.5 ml of a solution at 0.1% SDS for 30 minutes at room temperature. The genomic DNA was then extracted by using a QIAquick Gel Extraction Kit (Qiagen, Hilden, Germany), electrophoretically separated by means of a 2% agarose gel and stained with ethidium bromide.

Assay [5] deals with all tested tumour cell lines (U937, NB4, HL-60, JURKAT, U-373MG, HeLa, H-28, RH-4). Description: Antiproliferative activity, Trypan blue viability. The following applies: range over the tested cell lines, 72 hours, read-out: IC50 values in the different tested cell lines.
Description: In order to evaluate the ability of these compounds to inhibit the proliferation of tumour cells in vitro, eight cell lines were selected, four deriving from haematopoietic tumours and four deriving from solid tumours. […] Each cell line has been grown in the appropriate growth medium at 37° C. […] The hematopoietic populations were diluted with preheated growth medium at 37° C. at a concentration of 1×10^5 cells/ml and aliquots of 2 ml were aliquoted in each single well of 6-well plates. The adhering cells were trypsinized, diluted with preheated growth medium at 37° C. and 0.5×10^5 cells were aliquoted in each single well of 6-well plates. […] Both compounds were diluted in distilled water and the treatments were repeated every 24 hours.
In a further assay the test system is H-28 cells. Description: Cell cycle, propidium iodide cytofluorimetric analysis. The following applies: H-28, 72 hour treatment. How it is done: as §1, §2

The structures appear in SMILES notation.

In the case of `CN(CCN(C)Cc1occc(=O)c1O)Cc1occc(=O)c1O` [Compound L1, N,N′-bis[(3-hydroxy-4-pyron-2-yl)methyl]-N,N′-dimethylethylendiamine], the “block of the cell cycle” value is “severe block in G2” in the assay on JURKAT cells, “mainly blocked in phase S” with HL-60 cells, “severe block in G2” in the assay with RH-4 cells and “mainly blocked in phase S” with HeLa cells. For the same molecule, the “interruption of the cell cycle” value with tumour cell lines was “interrupt the cell cycle of tumour cells in phase S and G2 in a concentration-dependent manner”. The “induction of apoptosis (hypodiploid cells)” value in the assay on tumour cell lines (tumour cells, propidium iodide) was “induce apoptosis”. The IC50 came to 30.5 µM in [1], 22 µM in assay [2], 4.49 µM in [3] and 10.4 µM in assay [4]. Also, the “fragmentation of genomic DNA” value with U937 cells is listed as “concentration-dependent internucleosomic fragmentation”.

Take `CN1CCN(Cc2occc(=O)c2O)CCN(C)CCN(Cc2occc(=O)c2O)CC1` [Compound L9, 4(N),10(N)-bis[(3-hydroxy-4-pyron-2-yl)methyl]-1,7-dimethyl-1,4,7,10-tetraazacyclododecane]: the half-inhibitory concentration (IC50) in assay [5] was in the range of 1.45 to 2.31 µM. The “block of the cell cycle” value with JURKAT cells is given as “stop especially in phase S”; with HL-60 cells, “moderate block in phase G1”; with H-28 cells, “moderate block in phase G1”; in the assay with HeLa cells, “stop especially in phase S”. In addition, the “interruption of the cell cycle” value with tumour cell lines is “mainly blocked in phase G2”. The “fragmentation of genomic DNA” value in the assay on U937 cells is “concentration-dependent internucleosomic fragmentation”.
